We go through 56 molecules from US4895841A (priority 1987, dated 1990).

Where a name gives a salt, the structure may show the parent alone. Read-outs that look alike come from different tables or passages of the source.

In data set [1] the test system is passive avoidance learning impairment induced by scopolamine. As to the kind of experiment: Action on passive avoidance learning impairment induced by scopolamine. It is filed as in vivo, Male Wistar rats. The note with it: scopolamine 0.5 mg/kg i.p. The method, then:
Action on passive avoidance learning impairment induced by scopolamine
See Z. Bokolanecky & Jarvik: Int. J. Neuropharmacol, 6, 217-222(1967).
Male Wistar rats were used as the test animal and a step-through light and dark box was used as an apparatus. A sample to detect was orally administered one hour before the training and the rats were treated with 0.5 mg/kg (i.p.) of scopolamine 30 min. before the training. In a training experiment, the animal was placed into a light room and, just after the animal had entered into a dark room, a guillotine door was closed, followed by delivery of an electric shock from the gid of the floor. After six hours, the animal was again placed into a light room for a retention experiment, and the time taken for the animal to enter the dark room was measured for evaluation of the effect of the sample.
The difference in the response time between the physiological saline administration group and the scopolamine administration group was taken as 100%, and the effect of the sample was expressed in terms of the percentage antagonism by the sample (Reverse %).
The number of animals per dose was 10 to 17.

The target in data set [2] is T1, acetylcholinesterase (Mus musculus, UniProt P21836).
T1 construct: A mouse brain homogenate was used as an acetylcholinesterase source; from tissue; host or cells: mouse brain homogenate
The data set is described as follows: biochemical. It counts as biochemical.

Another data set in a line: Toxicity tests on rats. The note with it: rat, in vivo, no serious toxicity.
Data set [3] relates to acetylcholinesterase. As to the kind of experiment: Ex vivo acetylcholinesterase inhibitory action in rat cerebral hemispheres after oral administration. The note with it: 1 h after administration, vs saline control.
Excerpt: A sample to detect was orally administered to rats. After one hour of the administration, the cerebral hemispheres were dissected and homogenized, followed by the determination of the acetylcholinesterase activity. The group of rats treated with physiological saline was used as the control. Inhibition of AChE by samples ex vivo was expressed in terms of inhibition percent of the control value.
[4] abbreviates: 0.25 mg/kg oral 1 h before training.
Where [5] appears, read: 0.5 mg/kg oral 1 h before training.
The mark [6] stands for this setting: read-out: AChE inhibitory activity IC50.
Where [7] appears, read: 1.0 mg/kg oral 1 h before training.
Where [8] appears, read: read-out: Inhibitory activity on AChE IC50.
Setting [9] is: in vitro, mouse brain homogenate, Table 10, read-out: Inhibitory activity on AChE IC50.

T1 sequence (P21836 32-614): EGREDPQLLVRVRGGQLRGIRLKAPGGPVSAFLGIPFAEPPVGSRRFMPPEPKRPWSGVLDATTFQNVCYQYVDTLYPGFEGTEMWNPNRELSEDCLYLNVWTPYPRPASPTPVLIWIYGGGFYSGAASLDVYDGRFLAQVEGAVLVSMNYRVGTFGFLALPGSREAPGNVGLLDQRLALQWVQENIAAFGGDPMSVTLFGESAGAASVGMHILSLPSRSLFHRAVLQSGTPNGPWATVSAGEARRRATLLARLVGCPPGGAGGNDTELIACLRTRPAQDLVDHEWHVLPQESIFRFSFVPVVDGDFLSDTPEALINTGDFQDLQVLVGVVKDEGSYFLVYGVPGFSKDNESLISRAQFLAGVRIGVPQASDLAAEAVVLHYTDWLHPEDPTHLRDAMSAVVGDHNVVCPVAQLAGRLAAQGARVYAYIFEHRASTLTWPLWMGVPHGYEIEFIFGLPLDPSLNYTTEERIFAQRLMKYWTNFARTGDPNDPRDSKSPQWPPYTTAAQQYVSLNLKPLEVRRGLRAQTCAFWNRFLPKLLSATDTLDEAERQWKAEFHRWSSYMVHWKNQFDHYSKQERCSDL

In the case of `COc1cc2c(cc1OC)C(=O)C(CC1CCN(Cc3ccccc3)CC1)C2` (centres unmarked) [Example 4, 1-Benzyl-4-[(5,6-dimethoxy-1-indanon)-2-yl]-methylpiperidine hydrochloride], the “Reverse % (percentage antagonism of scopolamine effect)” value was 55% in data set [1] (0.125 mg/kg oral 1 h before training) and 36% in data set [1] (setting [4]). As to `CC(C)OC(=O)c1nccnc1C(=O)NCCC1CCN(Cc2ccccc2)CC1` [Example 13], the IC50 against acetylcholinesterase [2] stood at 26 nM. Moreover, the “Reverse % (percentage antagonism of scopolamine effect)” value came to 39% in data set [1] (setting [4]) and 27% in data set [1] (setting [5]). In “Toxicity tests on rats”, the LD50 is at least 100 mg/kg. Take `O=C(NCCC1CCN(Cc2ccccc2)CC1)c1cnc2ccccc2n1` [Example 15, N-[4'-(1'-Benzylpiperidyl)ethyl]-2-quinoxalinecarboxylic amide]: the IC50 on acetylcholinesterase [2] (setting [6]) was 94 nM. In addition, the “AChE inhibitory action (%)” value with acetylcholinesterase [3] (10 mg/kg oral) turned out to be 5%; with acetylcholinesterase [3] (30 mg/kg oral), 14%; in the data set with acetylcholinesterase [3] (100 mg/kg oral) it was 18%. Also, the “Reverse % (percentage antagonism of scopolamine effect)” value in data set [1] (setting [7]) is 51%; in data set [1] (2.0 mg/kg oral 1 h before training), 30%. The LD50 in “Toxicity tests on rats” is at least 100 mg/kg. Take `O=C(c1ccncc1)N(CCC1CCN(Cc2ccccc2)CC1)c1ccccc1` [Example 19, dihydrochloride]: the IC50 at acetylcholinesterase [2] (setting [6]) worked out at 64 nM. Besides, the “Reverse % (percentage antagonism of scopolamine effect)” value is recorded as 37% in data set [1] (setting [5]) and 39% in data set [1] (setting [7]). The molecule further yielded an LD50 in “Toxicity tests on rats” of at least 100 mg/kg. As for `CCN1CC(=O)N(CCC2CCN(Cc3ccccc3)CC2)c2ccccc2C1` [Example 69], the “Reverse % (percentage antagonism of scopolamine effect)” value is given as 22% in data set [1] (setting [5]) and 38% in data set [1] (setting [7]). In addition, the LD50 in the data set “Toxicity tests on rats” was at least 100 mg/kg. For the molecule `COc1ccc2c(c1)C(=O)C(CC1CCN(Cc3ccccc3)CC1)C2` (centres unmarked) [Example 188], the IC50 on acetylcholinesterase [2] (setting [8]) was 81 nM.

`COc1cccc2c1CC(CC1CCN(Cc3ccccc3)CC1)C2=O` (centres unmarked) [Example 189]: at acetylcholinesterase [2] (setting [8]), the IC50 amounted to 12 nM.

For the molecule `COc1cc2c(c(OC)c1OC)C(=O)C(CC1CCN(Cc3ccccc3)CC1)C2` (centres unmarked) [Example 192], the IC50 at acetylcholinesterase [2] (setting [9]) amounted to 13 nM. Consider `O=C1c2cc(F)ccc2CC1CC1CCN(Cc2ccccc2)CC1` (centres unmarked) [Example 193], for which, at acetylcholinesterase [2], the IC50 was determined as 200 nM. The same measure, in the same setting: the value for `Cc1ccc2c(c1)C(=O)C(CC1CCN(Cc3ccccc3)CC1)C2` (centres unmarked) [Example 194] was 69 nM; that for `Cc1cccc2c1CC(CC1CCN(Cc3ccccc3)CC1)C2=O` (centres unmarked) [Example 195] was 7.1 nM. The same measure, in the same setting: as for `COc1cc2c(cc1O)C(=O)C(CC1CCN(Cc3ccccc3)CC1)C2` (centres unmarked) [Example 196], the figure is 1.3 nM; as for `COc1cc2c(cc1O)CC(CC1CCN(Cc3ccccc3)CC1)C2=O` (centres unmarked) [Example 197], 380 nM. `CCOc1cc2c(cc1OCC)C(=O)C(CC1CCN(Cc3ccccc3)CC1)C2` (centres unmarked) [Example 198]: on acetylcholinesterase [2], half-maximal inhibition (IC50) required 5.4 nM. Still for that read-out and setting: the value for `O=C1c2cc3c(cc2CC1CC1CCN(Cc2ccccc2)CC1)OCO3` (centres unmarked) [Example 199] was 23 nM; that for `CC(CC1CCN(Cc2ccccc2)CC1)C(=O)c1ccccc1` (centres unmarked) [Example 202] was 1200 nM. Regarding `COc1cc2c(cc1OC(C)C)CC(CC1CCN(Cc3ccccc3)CC1)C2=O` (centres unmarked) [Example 203], at acetylcholinesterase [2], inhibition was half-maximal at 9 nM (IC50). On to `COc1cc2c(cc1OC)C(=O)C(CCCCC1CCN(Cc3ccccc3)CC1)C2` (centres unmarked) [Example 204], for which, on acetylcholinesterase [2] (setting [8]), the IC50 came to 35 nM.

In the case of `COc1cc2c(cc1OC)C(=O)C(CCCCCC1CCN(Cc3ccccc3)CC1)C2` (centres unmarked) [Example 205], the IC50 on acetylcholinesterase [2] (setting [8]) came to 14 nM. For the molecule `COc1ccc2c(c1)C(=O)C(=CC1CCN(Cc3ccccc3)CC1)C2` [Example 206], at acetylcholinesterase [2] (setting [8]), the IC50 is 410 nM. As to `COc1cccc2c1CC(=CC1CCN(Cc3ccccc3)CC1)C2=O` [Example 207], the concentration for half-maximal inhibition (IC50) against acetylcholinesterase [2] is 49 nM. At acetylcholinesterase [2], `COc1ccc2c(c1OC)CC(=CC1CCN(Cc3ccccc3)CC1)C2=O` [Example 208] displayed an IC50 of 62 nM. For `COc1ccc2c(c1OC)C(=O)C(=CC1CCN(Cc3ccccc3)CC1)C2` [Example 209], the IC50 at acetylcholinesterase [2] was determined as 430 nM.

`COc1cc2c(c(OC)c1OC)C(=O)C(=CC1CCN(Cc3ccccc3)CC1)C2` [Example 210]: the midpoint of inhibition at acetylcholinesterase [2], the IC50, lay at 60 nM. The same measure, in the same setting: the value for `O=C1C(=CC2CCN(Cc3ccccc3)CC2)Cc2ccc(F)cc21` [Example 211] was 2000 nM. At acetylcholinesterase [2], `Cc1ccc2c(c1)C(=O)C(=CC1CCN(Cc3ccccc3)CC1)C2` [Example 212] had an IC50 of 500 nM. In turn, `Cc1cccc2c1CC(=CC1CCN(Cc3ccccc3)CC1)C2=O` [Example 213] displayed an IC50 at acetylcholinesterase [2] of 50 nM.

Consider `COc1cc2c(cc1O)C(=O)C(=CC1CCN(Cc3ccccc3)CC1)C2` [Example 214], for which the IC50 against acetylcholinesterase [2] is 8.4 nM. On the same count and under the same terms, the value for `COc1cc2c(cc1OCc1ccccc1)CC(=CC1CCN(Cc3ccccc3)CC1)C2=O` [Example 215] was 4.2 nM; that for `CCOc1cc2c(cc1OCC)C(=O)C(=CC1CCN(Cc3ccccc3)CC1)C2` [Example 216] was 17 nM; that for `O=C1C(=CC2CCN(Cc3ccccc3)CC2)Cc2cc3c(cc21)OCO3` [Example 217] was 140 nM. The molecule `O=C1C(=CC2CCN(Cc3ccccc3)CC2)CCc2ccccc21` [Example 218] came in with an IC50 against acetylcholinesterase [2] of 20000 nM.

At acetylcholinesterase [2], `O=C1C(=CC2CCN(Cc3ccccc3)CC2)CCCc2ccccc21` [Example 219] gave an IC50 of 19000 nM. Molecule `CC(=CC1CCN(Cc2ccccc2)CC1)C(=O)c1ccccc1` [Example 220] returned an IC50 against acetylcholinesterase [2] of 11000 nM. The same measure, in the same setting: the value for `COc1cc2c(cc1OC(C)C)CC(=CC1CCN(Cc3ccccc3)CC1)C2=O` [Example 221] was 33 nM; that for `COc1cc2c(cc1OC)C(=O)C(=CCCCC1CCN(Cc3ccccc3)CC1)C2` [Example 222] was 11 nM; that for `COc1cc2c(cc1OC)C(=O)C(=CCCCCC1CCN(Cc3ccccc3)CC1)C2` [Example 223] was 5.4 nM.

Consider `COc1cc2c(cc1OC)C(=O)C(=CC=CC1CCN(Cc3ccccc3)CC1)C2` [Example 224, 1-benzyl-4-((5,6-dimethoxy-1-oxoindanon)-2-yl)propenylpiperidine], for which the IC50 on acetylcholinesterase [2] amounted to 3 nM.

In the case of `COc1cc2c(cc1OC)C(=O)C(CN1CCC(Cc3ccccc3)CC1)C2` (centres unmarked) [Example 225], the IC50 at acetylcholinesterase [2] (setting [8]) was 480 nM. `COc1cc2c(cc1OC)C(=O)C(CC1CC[N+]([O-])(Cc3ccccc3)CC1)C2` (centres unmarked) [Example 226]: the IC50 on acetylcholinesterase [2] was determined as 4.9 nM. `COc1cc2c(cc1OC)C(=O)C(CC1CCN(Cc3ccc(C)cc3)CC1)C2` (centres unmarked) [Example 229]: on acetylcholinesterase [2] (setting [9]), the IC50 is 40 nM. `COc1cc2c(cc1OC)C(=O)C(CC1CCN(Cc3ccccc3[N+](=O)[O-])CC1)C2` (centres unmarked) [Example 230]: the IC50 at acetylcholinesterase [2] (setting [8]) is 160 nM. The molecule `COc1cc2c(cc1OC)C(=O)C(CC1CCN(Cc3cccc(O)c3)CC1)C2` (centres unmarked) [Example 233] came in with an IC50 against acetylcholinesterase [2] of 46 nM.

`COc1cc2c(cc1OC)C(=O)C(CC1CCN(Cc3ccc(O)cc3)CC1)C2` (centres unmarked) [Example 234] came in with an IC50 on acetylcholinesterase [2] of 1.8 nM.

For the molecule `COc1cccc(CN2CCC(CC3Cc4cc(OC)c(OC)cc4C3=O)CC2)c1` (centres unmarked) [Example 235], at acetylcholinesterase [2], half-maximal inhibition (IC50) required 220 nM. Molecule `COc1ccc(CN2CCC(CC3Cc4cc(OC)c(OC)cc4C3=O)CC2)cc1` (centres unmarked) [Example 236] yielded an IC50 on acetylcholinesterase [2] of 3600 nM.

On to `COc1cc2c(cc1OC)C(=O)C(CC1CCN(Cc3cccc(OCc4ccccc4)c3)CC1)C2` (centres unmarked) [Example 237], for which inhibition on acetylcholinesterase [2] was half-maximal at 2600 nM (IC50). At acetylcholinesterase [2], `COc1cc2c(cc1OC)C(=O)C(CC1CCN(Cc3cccnc3)CC1)C2` (centres unmarked) [Example 238] returned an IC50 of 72 nM.

`COc1cc2c(cc1OC)C(=O)C(CC1CCN(Cc3cccc4ccccc34)CC1)C2` (centres unmarked) [Example 241] gave an IC50 against acetylcholinesterase [2] of 220 nM.

On acetylcholinesterase [2], `COc1cc2c(cc1OC)C(=O)C(CC1CCN(Cc3ccc4ccccc4c3)CC1)C2` (centres unmarked) [Example 242] had an IC50 of 2900 nM.

For `COc1ccc(CN2CCC(CC3Cc4cc(OC)c(OC)cc4C3=O)CC2)cc1OC` (centres unmarked) [Example 243], at acetylcholinesterase [2], it took 4000 nM to reach half-maximal inhibition (IC50). On to `COc1cc2c(cc1OC)C(=O)C(CC1CCN(Cc3cc(OC)c(OC)c(OC)c3)CC1)C2` (centres unmarked) [Example 244], for which the IC50 against acetylcholinesterase [2] amounted to 4900 nM. The same measure, in the same setting: as for `COc1cc2c(cc1O)C(=O)C(CC1CCNCC1)C2` (centres unmarked) [Example 245], the figure is 5000 nM; as for `COc1cc2c(cc1OC)C(=NNc1ccc([N+](=O)[O-])cc1[N+](=O)[O-])C(CC1CCN(Cc3ccccc3)CC1)C2` (centres unmarked) [Example 246], 4400 nM; as for `COc1cc2c(cc1OC)C(=O)C(NC1CCN(Cc3ccccc3)CC1)C2` (centres unmarked) [Example 248], 1400 nM. In turn, `COc1cc2c(cc1OC)C(=O)C(C(C1CCN(Cc3ccccc3)CC1)C1Cc3cc(OC)c(OC)cc3C1=O)C2` (centres unmarked) [Example 249] gave an IC50 against acetylcholinesterase [2] of 620 nM.
